Test results published in PMC2654417 (Combinatorial chemistry & high throughput screening, 2008).
Read-outs that look alike come from different tables or passages of the source.

Molecular target: T1, glucocorticoid receptor (GR) (Homo sapiens, UniProt P04150)
T1 sequence (P04150 1-777): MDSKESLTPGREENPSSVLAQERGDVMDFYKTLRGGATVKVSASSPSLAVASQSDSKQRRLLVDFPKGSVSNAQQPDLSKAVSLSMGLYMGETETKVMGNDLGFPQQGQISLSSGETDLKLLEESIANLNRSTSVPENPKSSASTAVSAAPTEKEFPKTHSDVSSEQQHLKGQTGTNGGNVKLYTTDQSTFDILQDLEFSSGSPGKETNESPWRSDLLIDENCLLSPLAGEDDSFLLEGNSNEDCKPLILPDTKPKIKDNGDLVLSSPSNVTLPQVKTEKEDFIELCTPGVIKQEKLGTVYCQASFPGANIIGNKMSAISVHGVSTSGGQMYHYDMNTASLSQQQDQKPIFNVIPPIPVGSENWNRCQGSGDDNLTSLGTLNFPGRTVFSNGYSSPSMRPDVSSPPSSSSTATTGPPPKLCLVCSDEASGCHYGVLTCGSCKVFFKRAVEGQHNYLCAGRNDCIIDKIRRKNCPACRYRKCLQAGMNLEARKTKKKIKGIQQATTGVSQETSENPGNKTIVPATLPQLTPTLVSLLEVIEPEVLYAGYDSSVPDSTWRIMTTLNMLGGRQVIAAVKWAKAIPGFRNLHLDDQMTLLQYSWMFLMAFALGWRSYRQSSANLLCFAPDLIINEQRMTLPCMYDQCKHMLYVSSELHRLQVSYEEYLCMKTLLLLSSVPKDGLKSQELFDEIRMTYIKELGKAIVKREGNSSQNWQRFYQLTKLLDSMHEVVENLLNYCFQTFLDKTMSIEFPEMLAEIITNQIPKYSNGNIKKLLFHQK
Assay: GR-EFC nuclear translocation assay
Type: cell-based
Conditions: for qHTS Hill Slope: Hill slope of the qHTS curve fit; for qHTS Max Activity: maximal activity of the qHTS curve, inactive threshold […] (3σ); for log qEC50: log10 of qEC50 in M, printed as negative values

[1] = read-out: qEC50, qHTS curve fit, class 4 values are fit defaults
[2] = class 4 values are fit defaults

`CC(=O)C1(O)CCC2C3CCC4=CC(=O)CCC4(C)C3CCC21C` (stereo not drawn) [17α-hydroxyprogesterone, reference compound] gave an EC50 of 2.87 µM.

With `C[C@]12CC[C@@H]3c4ccc(O)cc4CC[C@H]3[C@@H]1CC[C@@H]2OC(=O)CCC1CCCC1` [NCGC00013034-01] the EC50 [1] was greater than 9 µM.

Compound `C[C@H](CCC(=O)O)[C@H]1CC[C@H]2[C@@H]3[C@H](O)C[C@@H]4C[C@H](O)CC[C@]4(C)[C@H]3C[C@H](O)[C@]12C` [NCGC00013426-01] has an EC50 [1] greater than 9 µM.

`CC(C)(O)/C=C\C(=O)[C@](C)(O)[C@H]1[C@H](O)C[C@]2(C)[C@@H]3CC=C4[C@@H](C=C(O)C(=O)C4(C)C)[C@]3(C)C(=O)C[C@@]12C` [NCGC00014911-01] was tested, and the “qHTS Curve Class” value was 4 (inactive, where activity was below 28.6% (3σ for the present assay)) and the EC50 (read-out: qEC50) was greater than 9 µM.

In the case of `C[C@@]12CC[C@H]3[C@@H](CCC4=C(O)C(=O)CC[C@]43C)[C@H]1CCC2=O` [NCGC00015070-01], the EC50 [1] is reported as greater than 9 µM.

In the case of `C[C@@]12CC[C@H]3[C@@H](CC[C@@H]4C[C@H](O)CC[C@]43C)[C@H]1CC[C@H]2O` [NCGC00015090-01], the EC50 [1] is reported as greater than 9 µM.

`C[C@@H]1C[C@@H]2[C@H]3CCC4=CC(=O)C=C[C@]4(C)[C@]3(Cl)[C@@H](O)C[C@@]2(C)[C@@]1(O)C(=O)CO` [NCGC00015136-01] was tested, and the “qHTS Hill Slope” value was 0.67 and the “qHTS Max Activity” value was 105.1.

For `C[C@@]12C[C@@H](O)[C@H]3[C@@H](CCC4=CC(=O)CC[C@]43C)[C@H]1CC[C@H]2C(=O)CO` [NCGC00015222-01], the “qHTS Hill Slope” value was 0.77, the “log qEC50” value [2] was −6.747 and the “qHTS Max Activity” value was 64.0. It also gave an EC50 [1] of 0.179 µM.

Work on `C[C@]12CC[C@H](O)CC1=CC[C@@H]1[C@H]2CC[C@]2(C)C(=O)CC[C@H]12` [NCGC00015341-01] yielded an EC50 [1] greater than 9 µM.

For `C#C[C@@]1(O)CC[C@H]2[C@H]3CCC4=Cc5oncc5C[C@]4(C)[C@@H]3CC[C@@]21C` [NCGC00015375-01], the “qHTS Curve Class” value was 4 (inactive, where activity was below 28.6% (3σ for the present assay)) and the EC50 (read-out: qEC50) was greater than 9 µM.

`CC[C@@H]1Cc2cc(O)ccc2C2=C1c1ccc(O)cc1C[C@H]2CC` [NCGC00015377-01] was tested, and the “qHTS Curve Class” value was 4 (inactive, where activity was below 28.6% (3σ for the present assay)) and the EC50 (read-out: qEC50) was greater than 9 µM.

`C[C@@]12CCC(=O)C=C1CC[C@@H]1[C@@H]2[C@H](O)C[C@]2(C)[C@@H]1CC[C@]2(O)C(=O)CO` [NCGC00015507-01] was tested, and the “qHTS Hill Slope” value was 0.55 and the “qHTS Max Activity” value was 123.7.

In the case of `CC(=O)[C@@]1(O)CC[C@@H]2[C@@H]3CCC4=CC(=O)CC[C@@]4(C)[C@H]3CC[C@]21C` [NCGC00015510-01], the “qHTS Hill Slope” value is reported as 0.35 and the “qHTS Max Activity” value is reported as 100.0.

`COc1cc2c(cc1O)CC[C@@H]1[C@@H]2CC[C@@]2(C)[C@H](O)CC[C@H]12` [NCGC00015690-01] was tested, and the EC50 [1] was greater than 9 µM.

With `CC(=O)O[C@@H]1[C@H]([N+]2(C)CCCCC2)C[C@@H]2[C@@H]3CC[C@@H]4C[C@@H](OC(C)=O)[C@H]([N+]5(C)CCCCC5)C[C@@]4(C)[C@H]3CC[C@]21C` [NCGC00015804-01] the EC50 [1] was greater than 9 µM.

`C[C@]12CC[C@H](O)C[C@@H]1CC[C@H]1[C@H]2CC[C@]2(C)[C@H](C(=O)CO)CC[C@@H]12` [NCGC00015805-01] was tested, and the EC50 [1] was greater than 9 µM.

For `CC(=O)[C@@H]1CC[C@H]2[C@H]3CC[C@H]4C[C@@H](O)CC[C@]4(C)[C@@H]3CC[C@]12C` [NCGC00015853-01], the EC50 [1] was greater than 9 µM.

In the case of `C[C@@]12CCC(=O)C=C1CC[C@H]1[C@H]3CC[C@](O)(C(=O)CO)[C@]3(C)CC[C@@H]12` [NCGC00015886-01], the “qHTS Hill Slope” value is reported as 0.59, the “log qEC50” value [2] is reported as −6.363 and the “qHTS Max Activity” value is reported as 41.2. The EC50 [1] was 0.434 µM.

In the case of `C[C@]12C=CC(=O)C=C1CC[C@@H]1[C@H]3C[C@@H](O)[C@](O)(C(=O)CO)[C@]3(C)C[C@H](O)[C@]12F` [NCGC00016037-01], the “qHTS Hill Slope” value is reported as 1.03, the “log qEC50” value [2] is reported as −6.563 and the “qHTS Max Activity” value is reported as 113.5. It also gave an EC50 [1] of 0.273 µM.

For `C[C@@]12C=CC(=O)C=C1CC[C@@H]1C2=CC[C@]2(C)[C@@H]1CC[C@H]2C(=O)CN1CCN(c2cc(N3CCCC3)nc(N3CCCC3)n2)CC1` [NCGC00016076-01], the “qHTS Curve Class” value was 4 (inactive, where activity was below 28.6% (3σ for the present assay)) and the EC50 (read-out: qEC50) was greater than 9 µM.

Compound `COc1ccc2c(c1)CC[C@H]1[C@H]2CC[C@]2(C)[C@H](NCCCCCCN3C(=O)C=CC3=O)CC[C@@H]12` [NCGC00016078-01] has an EC50 [1] greater than 9 µM.

In the case of `C[C@]12Cc3cn4c(nc3C=C1CC[C@H]1[C@@H]2CC[C@@]2(C)[C@H]1CC[C@@]2(O)C#N)nc1ccccc14` [NCGC00016090-01], the “qHTS Curve Class” value is reported as 4 (inactive, where activity was below 28.6% (3σ for the present assay)) and the EC50 (read-out: qEC50) is reported as greater than 9 µM.

For `C[C@@]12CC[C@H]3[C@@H](CC=C4C[C@H](OS(=O)(=O)O)CC[C@]43C)[C@H]1CCC2=O` [NCGC00016143-01], the EC50 [1] was greater than 9 µM.

With `CC(=O)O[C@@H]1C[C@]2(C)[C@H](C[C@@H](O)[C@H]3[C@@]4(C)CC[C@@H](O)[C@@H](C)[C@@H]4CC[C@@]32C)/C1=C(\CCC=C(C)C)C(=O)[O-].[Na+]` [NCGC00016148-01] the “qHTS Curve Class” value was 4 (inactive, where activity was below 28.6% (3σ for the present assay)) and the EC50 (read-out: qEC50) was greater than 9 µM.

For `C[C@@]12CCC(=O)C=C1CC[C@@H]1[C@@H]2[C@H](O)C[C@]2(C)[C@@H]1CC[C@]2(O)C(=O)COC(=O)CCC(=O)[O-].[Na+]` [NCGC00016153-01], the “qHTS Hill Slope” value was 0.62, the “log qEC50” value [2] was −5.952 and the “qHTS Max Activity” value was 100.0. It also gave an EC50 [1] of 1.12 µM.

Work on `CC(=O)[C@@H]1CC[C@@H]2[C@@H]3CC=C4C[C@H](OS(=O)(=O)O)CC[C@@]4(C)[C@H]3CC[C@]21C` [NCGC00016184-01] yielded an EC50 [1] greater than 9 µM.

In the case of `C[C@@]12C[C@@H](O)[C@H]3[C@@H](CCC4=CC(=O)CC[C@]43C)[C@H]1CC[C@H]2C(=O)CO` [NCGC00016214-01], the “qHTS Hill Slope” value is reported as 1.35, the “log qEC50” value [2] is reported as −7.782 and the “qHTS Max Activity” value is reported as 37.8. It also gave an EC50 [1] of 0.0165 µM.

With `C[C@@]12CCC(=O)C=C1CC[C@@H]1[C@@H]2[C@H](O)C[C@]2(C)[C@@H]1CC[C@]2(O)C(=O)CO` [NCGC00016215-01] the “qHTS Hill Slope” value was 0.70 and the “qHTS Max Activity” value was 60.7.

With `C[C@@]12CC[C@@H]3c4ccc(O)cc4CC[C@H]3[C@H]1C[C@@H](O)[C@H]2O` [NCGC00016217-01] the EC50 [1] was greater than 9 µM.

With `C#C[C@]1(O)CC[C@H]2[C@@H]3CCC4=CCCC[C@@H]4[C@H]3CC[C@@]21C` [NCGC00016233-01] the “qHTS Curve Class” value was 4 (inactive, where activity was below 28.6% (3σ for the present assay)) and the EC50 (read-out: qEC50) was greater than 9 µM.

Work on `CCC(=O)O[C@H]1CC[C@H]2[C@@H]3CCC4=CC(=O)CC[C@]4(C)[C@H]3CC[C@]12C` [NCGC00016254-01] yielded an EC50 [1] greater than 9 µM.

Work on `C[C@]12CC[C@H]3[C@@H](CCC4=CC(=O)CC[C@@]43C)[C@@H]1CC[C@@H]2C(=O)CO` [NCGC00016292-01] yielded an EC50 [1] greater than 9 µM.

Compound `C[C@@]12CC[C@H]3[C@@H](CC[C@]4(O)C[C@H](O)CC[C@@]34C=O)[C@]1(O)CC[C@@H]2C1=CC(=O)OC1` [NCGC00016295-01] has an EC50 [1] greater than 9 µM.

For `C#C[C@@]1(O)CC[C@@H]2[C@@H]3CCC4=CC(=O)CC[C@@H]4[C@H]3CC[C@]21C` [NCGC00016303-01], the “qHTS Curve Class” value was 4 (inactive, where activity was below 28.6% (3σ for the present assay)).

With `C#C[C@]1(O)CC[C@@H]2[C@H]3CCc4cc(OC)ccc4[C@@H]3CC[C@@]21C` [NCGC00016310-01] the EC50 [1] was greater than 9 µM.

In the case of `C[C@@H]1[C@H](C)CC[C@@]2(C(=O)O)CC[C@]3(C)C(=CC[C@H]4[C@@]5(C)CC[C@@H](O)C(C)(C)[C@@H]5CC[C@@]43C)[C@@H]12` [NCGC00016318-01], the “qHTS Curve Class” value is reported as 4 (inactive, where activity was below 28.6% (3σ for the present assay)) and the EC50 (read-out: qEC50) is reported as greater than 9 µM.
